Laboratory results: ChEMBL document CHEMBL3507680, “University of Dundee, Gates Library screen for HepG2 cell viability”

Test: Human HepG2 cell viability assay in 384 well format
Format: toxicity, cell-based
Set-up: dose 125 nL, time 70.5 hour; concentration not given beside the values
Settings: HepG2 cells, read-out: Inhibition

Row | Compound | cytotoxicity at 70.5 h [%]
1 | Cc1cccc(CN2CC[C@H]3OCC[C@@]3(C(=O)N3CCOCC3)C2)n1 | -4.06
2 | CN(C)C(=O)[C@H]1C[C@@H]2CN(S(=O)(=O)Cc3ccccc3)C[C@H]1O2 | -17.1
3 | Cn1cc(-c2cnc(N3CCOCC3)nc2)cc1C(=O)N1CCOCC1 | -22
4 | COCCC(=O)N1CC2(CCN(Cc3ccoc3)C2)C1 | 33.7
5 | COCC1CN(C(=O)c2ccoc2C)Cc2nccn2C1 (stereo not given) | 22.7
6 | COCC1CN(C(=O)c2cccn2C)Cc2nccn2C1 (stereo not given) | -18.2
7 | Cc1ccc(CN2CCCC3(CCN(S(=O)(=O)N(C)C)C3)C2)o1 (stereo not given) | -9.63
8 | CC(C)Nc1nc(N2CCOCC2)nc2c1CN(Cc1ccoc1)CC2 | -12.3
9 | CC(=O)NCC(=O)N1CCN(CC2CC2)c2ncccc2C1 | -9.1
10 | c1ccc(-c2nnn3c2COC(CNCC2CCOCC2)C3)cc1 (stereo not given) | -5.85
11 | Cn1cccc1C(=O)N1CCc2ncnc(C3CC3)c2CC1 | -0.695
12 | O=C1NC2(CCNCC2)CC1c1cccnc1 (stereo not given) | -7.17
13 | CCO[C@@H]1CCN(C(=O)c2ccc[nH]2)[C@@H]1Cc1cnn(C)c1 | -2.67
14 | CCO[C@@H]1CCN(C(=O)c2cscn2)[C@@H]1Cc1cnn(C)c1 | -10.2
15 | CO[C@H]1CCN(C(=O)Cc2ccccn2)[C@H]1Cc1ccncc1 | -7.06
16 | C[C@@H]1CN(C(=O)c2ccsc2)C[C@]12CCN(c1ccsc1)C2=O | 1.23
17 | O=C(c1ccc2c(c1)OCO2)N1CCC[C@]2(C[C@H](OCC3CC3)CO2)C1 | -9.71
18 | O=C(c1cccs1)N1CCC2(C1)c1ccccc1S(=O)(=O)N2CC1CC1 (stereo not given) | -3.76
19 | COCCC(=O)N1CC[C@@H]2O[C@@H](C)C[C@H]2C1 | -15.5
20 | O=C(c1cscn1)N1CCC[C@]2(C[C@H](OCC3CC3)CO2)C1 | -5.48
21 | COc1ccccc1CN1CCC2(CC1)CC(Oc1ccccn1)CO2 (stereo not given) | 47.3
22 | Cc1nc(NCC2CC2)nc2c1COCC21CCN(C)C1 (stereo not given) | -3.52
23 | O=C(C1CCOC1)N1C[C@H]2CN(Cc3nccs3)C[C@H]2C1 (stereo not given in full) | -2.75
24 | Cc1cc(CN2CC[C@H]3C[C@H](c4nccs4)O[C@@H]3C2)no1 | -15.6
25 | O=C(c1ccc[nH]1)N1C[C@H]2CN(Cc3cccc(F)c3)C(=O)[C@H]2C1 | -0.293
26 | Cc1ncoc1C(=O)N1C[C@H]2CCC[C@@]2(COCC2CCOCC2)C1 | -12.7
27 | Cc1noc(C)c1CN1CC[C@H]2C[C@@H](c3ccncn3)O[C@@H]2C1 | -10.7

Row | Compound | cytotoxicity at 70.5 h [%]
28 | Cn1cc(CN2CCCC3(CCN(Cc4cccnc4)C3=O)C2)cn1 (stereo not given) | -13.4
29 | CNC(=O)[C@@]12CCO[C@@H]1CCN(S(=O)(=O)c1cccc(C)c1)C2 | -5.31
30 | CC(=O)N1CCC2(CCN(C(=O)c3ccc(C)c(C(F)(F)F)c3)CC2)C1 | 37.6
31 | CCC1=N[C@@]2(CC[C@@H]3CN(C(=O)NCc4ccccc4)C[C@@H]32)C(=O)N1C | 26.3
32 | CC(C)N1CCO[C@H]2CN(C(=O)c3ccc(N(C)C)cc3)C[C@H]21 | -2.38
33 | CC(C)NC(=O)C1CN(C(=O)N2CCCC2)CC12CCOCC2 (stereo not given) | -1.86
34 | O=C(c1ccccn1)C1CCCN(c2nccc(CCC(F)(F)F)n2)C1 (stereo not given) | -13.1
35 | c1ccc(-c2nnc(CN3C[C@@H]4CC[C@H](C3)N(CC3CCC3)C4)o2)cc1 | 18.8
36 | COCCN(C/C=C/c1ccccc1)Cc1ccccn1 | 6.25
37 | O=C(NCCc1cccnc1)C1CCCN(Cc2ccco2)C1 (stereo not given) | 16.1
38 | Cc1ccccc1C(Nc1ncnc2c1CCNC2)c1ccccc1 (stereo not given) | -1.58
39 | CCOC(=O)CC(C)Nc1nc(C2CCCC2)nc2c1cnn2C (stereo not given) | -12.8
40 | CC1(c2ccccc2)CCC(=O)N(CCN2CCCOC2=O)C1 (stereo not given) | -6.79
41 | CCN1CC(NC(=O)Nc2nc(C)n(C(C)C)n2)CC1=O (stereo not given) | 9.96
42 | CCC[C@H]1CN(S(=O)(=O)c2ccccc2)C[C@@H]1N | 16.4
43 | C=C(C)COc1cccc(CN(C)C(C)c2ccncn2)c1 (stereo not given) | -4.71
44 | CNc1nc(N2C[C@H](NC(=O)CCOC)[C@@H](C3CC3)C2)nc2c1CCC2 | -15.7
45 | Cc1cc(C)c(C(=O)NC(c2nnc3n2CCNCC3)C(C)C)c(C)c1 (stereo not given) | -5.04
46 | Cc1c(C(C)NC2CCCC2)cnn1-c1ccc(F)cc1F (stereo not given) | 0.586
47 | c1cc(-c2nc3c(c(NCCc4c[nH]cn4)n2)CCNCC3)ccn1 | 5.61
48 | Cc1ncsc1C(=O)N[C@@H](Cc1ccccc1)C(N)=O | -1.24
49 | CC(C)n1cnnc1CN1CCC2(CCCN(C3CCCCC3)C2=O)C1 (stereo not given) | -2.59
50 | COc1ccc(C(=O)NC2CC2)c(OC2CCN(CC3CC3)CC2)c1 | -2.04
51 | CC[C@H](C)[C@@H](CO)NC(C)Cc1ccc(F)cc1 (stereo not given in full) | -5.84
52 | CS(=O)(=O)N1C[C@@H]2CC[C@H](C1)N(Cc1ccc3nsnc3c1)C2 | 18.3
53 | Cn1c(CN2CCCC(Cn3cc(CCO)nn3)C2)cc2ccccc21 (stereo not given) | -0.291
54 | O=C1CCCCN1CC(=O)N1CCCC(c2ccccc2)C1 (stereo not given) | -20.6

Row | Compound | cytotoxicity at 70.5 h [%]
55 | CN(CCc1ccccn1)C(=O)CCC1CCCN(c2ncccn2)C1 (stereo not given) | -1.54
56 | CN1C(=O)C(c2ccccc2)CC12CCN(CCN)CC2 (stereo not given) | -5.41
57 | Cc1cccc(OC2CN(C(=O)c3cnn(C)c3)C2)c1 | 16.2
58 | Cc1csc(CN(C)C(=O)c2cccc(CCC(C)(C)O)c2)n1 | -6.05
59 | COc1cccc(CCC2CCCN(C(=O)c3ccc(=O)n(C)n3)C2)c1 (stereo not given) | -6.31
60 | COCCC1CN(c2nc(-c3ccccc3)nc3c2CCNC3)CCO1 (stereo not given) | 25.4
61 | c1cncc(-c2cccc(-c3ccn(CCN4CCCCC4)n3)c2)c1 | 13.9
62 | CS(=O)(=O)N1CC[C@]2(O)CCN(c3cc(C#N)ccn3)C[C@@H]2C1 | -11.9
63 | CC[C@@]1(O)CCN(C(=O)c2cccc3cc(C)oc23)C[C@H]1O | 6.9
64 | CC(C)c1cc(C2CCN(C(=O)Cn3cncn3)CC2)[nH]n1 | 43.3
65 | CC1(C)Cc2nc(C(C)(C)C)ncc2C(NC(=O)Cc2nnn[nH]2)C1 (stereo not given) | 52.3
66 | CN1CCN(Cc2c[nH]cn2)CC12CCC(=O)N(CC1CC1)CC2 (stereo not given) | 6.57
67 | O=C(C1CC12CCC2)N1CCC(n2cc(-c3ccsc3)nn2)CC1 (stereo not given) | -9.29
68 | O=C(CCn1cncn1)N1CCC2(CC1)[C@H](O)C[C@@H]2OCCO | 0.165
69 | CNc1nc(C(=O)N2CCC3(CCCN(CCOC)C3=O)C2)cs1 (stereo not given) | -3.96
70 | N#Cc1ccc(N2CCC(c3nccn3Cc3cscn3)CC2)nc1 | -0.885
71 | COCC1COCCC12CCN(Cc1cccs1)CC2 (stereo not given) | -7.86
72 | CN(C)C(=O)CN1CCC2(CCCN(Cc3cccn3C)C2)C1=O (stereo not given) | 25.7
73 | O=C(NC1CC1)[C@H]1C[C@@H]2CCN(CCc3ccccc3)C[C@H]2O1 | -11.8
74 | O=C(NC[C@]12COC[C@H]1CN(C1CCOCC1)C2)c1ccco1 | -0.469
75 | CN(Cc1cn2c(n1)CN(C(=O)CC1CC1)CC2)Cc1ccco1 | -4.98
76 | Cn1nnc2c1CCN(CC1CC1)C2COCc1ccccc1 (stereo not given) | -6.64
77 | O=C(c1cccc(Cl)c1)N1CCCn2c(CN3CCCCC3)nnc2C1 | -1.86
78 | c1ncn(Cc2cnc3n2CCN(Cc2ccsc2)CC3)n1 | 1.42
79 | O=C1CCC2(CCN(Cc3nccs3)CC2)N1Cc1ccccc1 | -7.75
80 | COc1ccc(CN2CCC3(CC(=O)N(c4cncnc4)C3)C2)cc1 (stereo not given) | -15.2
81 | O=C(CC1CC1)N1CC[C@H]2[C@@H]1CCC(=O)N2c1cccnc1 | -16.4

Row | Compound | cytotoxicity at 70.5 h [%]
82 | N#Cc1ccc(C(=O)N2CC[C@H]3[C@@H]2CCC(=O)N3c2cccnc2)cc1 | -6.84
83 | CN(C)c1ncnc2c1CCN(CC1CCCC1)CC2 | -13.2
84 | O=C(Cc1ccsc1)N1C[C@@H]2CN(Cc3ccoc3)CCO[C@@H]2C1 | -11.4
85 | CCS(=O)(=O)NC[C@]12COC[C@H]1CN(Cc1cccc(OC)c1)C2 | -11.2
86 | Cn1cc(CN2CCOCC3(C2)CN(c2ccccc2)C(=O)CO3)cn1 (stereo not given) | -5.28
87 | COCCN(C)C[C@@H]1CCC[C@@H]2CN(c3cc(OC)ncn3)C[C@@H]21 | -4.84
88 | CS(=O)(=O)N1CCC[C@]2(C[C@@H](Oc3ncccc3F)CO2)C1 | -5.05
89 | Cc1ccc(N2C[C@H](C)[C@]3(CCN(c4cccnc4)C3=O)C2)nn1 | -3.28
90 | O=C1[C@@H]2CCN(Cc3ccoc3)C[C@@H]2OCCN1Cc1cccnc1 | -20.5
91 | c1cncc(OC[C@@H]2CC[C@H]3[C@H](CCN3Cc3cccs3)O2)c1 | -4.43
92 | Cn1cc(CN2C[C@@H]3COC[C@@H](C(=O)N4CCCCO4)[C@@H]3C2)cn1 | -1.2
93 | c1cnc(N2CCOC3(CCN(CC4CCCCC4)CC3)C2)nc1 | -4.82
94 | Cc1noc(C)c1CN1CCN(CC2CC2)c2ncccc2C1 | -5.96
95 | CN(Cc1ccco1)[C@@H]1CN(Cc2ccco2)[C@@H]2CCCO[C@H]12 | -9.38
96 | O=C(Cc1ccccn1)N1CCC2(CC1)CC(Oc1ccccn1)CO2 (stereo not given) | -9.02
97 | COc1ccc(CN2C[C@@H]3OCCN(CC4CCCO4)[C@@H]3C2)cc1 (stereo not given in full) | -19.1
98 | O=C1CO[C@@H]2CN(Cc3cccs3)C[C@H]2N1Cc1ccncc1 | 7.47
99 | c1cn2c(n1)CN(CC1CC1)CC(CN1CCOCC1)C2 (stereo not given) | -7.21
100 | c1cnn(C[C@@H]2C[C@@H]3CN(CC4CC4)CC[C@@H]3N2c2nccs2)c1 | 0.124
101 | CN1CCN(Cc2cn3c(n2)CN(C2CCOCC2)CC3)CC1 | -6.56
102 | CO[C@H]1CCN(Cc2c(C)noc2C)[C@@H]2CN(Cc3ccncc3)C[C@H]12 | -5.37
103 | O=C(Nc1cccnc1)[C@H]1CN(Cc2nccs2)C[C@H]2OCC[C@@H]12 | 35.5
104 | CN(Cc1ccccn1)C1CC2(CCN(Cc3cccnc3)CC2)C1 | 5.08
105 | Cc1noc(C)c1CN1CCN(Cc2ccncc2)c2ncccc2C1 | -7.22
